Results as given in PubChem BioAssay AID210 (DTP/NCI, 2004).
Toxic doses and inconclusive results are not listed. Rule for the calls: active = survival T/C of 150% or more; inactive = T/C below 125% in these data.

System: CD2F1 mice, ip Colon 26 adenocarcinoma, median survival T/C
Assay: NCI In Vivo Anticancer Drug Screen. Data for tumor model Colon 26 Adenocarcinoma (intraperitoneal) in CD2F1 (CDF1) mice
Settings: endpoint: median survival time, higher = longer survival
Experimental: The antitumor activity of compounds was measured in mice bearing transplantable tumors. Survival or tumor size were measured and the results are expressed as the measurement made in the treated group (T) divided by the measurement made in the vehicle treated control group (C). The tumor model used in this assay is Colon 26 Adenocarcinoma (intraperitoneal) in CD2F1 (CDF1) mice

[1] = dose: 25.0 mg/kg/injection, schedule: Q04DX003 (ip), vehicle: saline with Tween-80
[2] = dose: 50.0 mg/kg/injection, schedule: Q04DX003 (ip), vehicle: saline with Tween-80

Measured: T/C

CCC1(O)CC2CN(CCc3c([nH]c4ccccc34)C(C(=O)OC)(c3cc4c(cc3OC)N(C)C3C(O)(C(=O)NCCSSCCNC(=O)C5(O)C(O)C6(CC)C=CCN7CCC8(c9cc(C%10(C(=O)OC)CC%11CN(CCc%12c%10[nH]c%10ccccc%12%10)CC(O)(CC)C%11)c(OC)cc9N(C)C58)C76)C(O)C5(CC)C=CCN6CCC43C65)C2)C1 (centres undefined)
inactive: dose: 540.0 micrograms/kg/injection, schedule: Q04DX003 (ip), vehicle: saline 114 % of control | dose: 900.0 micrograms/kg/injection, schedule: Q04DX003 (ip), vehicle: saline 114 % of control | dose: 1500.0 micrograms/kg/injection, schedule: Q04DX003 (ip), vehicle: saline 96 % of control

O=C(N/N=C\c1cc(Br)cc(Br)c1O)N/N=C/c1cc(Br)cc(Br)c1O
inactive: [1] 118 % of control | [2] 102 % of control | dose: 100.0 mg/kg/injection, schedule: Q04DX003 (ip), vehicle: saline with Tween-80 102 % of control | dose: 200.0 mg/kg/injection, schedule: Q04DX003 (ip), vehicle: saline with Tween-80 123 % of control

CN1C(=O)CC2(CCN(CCCC(=O)c3ccc(F)cc3)CC2)C1=O
inactive: dose: 3.12 mg/kg/injection, schedule: Q04DX003 (ip), vehicle: saline with Tween-80 96 % of control | dose: 6.25 mg/kg/injection, schedule: Q04DX003 (ip), vehicle: saline with Tween-80 98 % of control | dose: 12.5 mg/kg/injection, schedule: Q04DX003 (ip), vehicle: saline with Tween-80 100 % of control | [1] 100 % of control | [2] 102 % of control

CN(C)CCCNc1cccc2c1C(=O)c1c(NCCCN(C)C)cccc1C2=O
inactive: dose: 4.0 mg/kg/injection, schedule: Q01DX009 (ip), vehicle: saline 111 % of control | dose: 8.0 mg/kg/injection, schedule: Q01DX009 (ip), vehicle: saline 97 % of control | dose: 16.0 mg/kg/injection, schedule: Q01DX009 (ip), vehicle: saline 95 % of control | dose: 32.0 mg/kg/injection, schedule: Q01DX009 (ip), vehicle: saline 89 % of control | dose: 64.0 mg/kg/injection, schedule: Q01DX009 (ip), vehicle: saline 87 % of control

CC1(C)CC23C4COC(=O)C2CCC1C3CC4=O (centres undefined)
inactive: dose: 36.0 mg/kg/injection, schedule: Q04DX003 (ip), vehicle: DMSO 99 % of control | dose: 62.5 mg/kg/injection, schedule: Q04DX002 (ip), vehicle: saline with Tween-80 109 % of control | dose: 72.0 mg/kg/injection, schedule: Q04DX003 (ip), vehicle: DMSO 93 % of control | dose: 125.0 mg/kg/injection, schedule: Q04DX002 (ip), vehicle: saline with Tween-80 91 % of control | dose: 144.0 mg/kg/injection, schedule: Q04DX003 (ip), vehicle: DMSO 94 % of control

Nc1nc([Se])c2ncn(C3OC(CO)C(O)C3O)c2n1 (centres undefined)
inactive: dose: 4.0 mg/kg/injection, schedule: Q04DX003 (ip), vehicle: saline 114 % of control | dose: 4.0 mg/kg/injection, schedule: Q04DX003 (ip), vehicle: suspension in saline 116 % of control | dose: 8.0 mg/kg/injection, schedule: Q04DX003 (ip), vehicle: saline 104 % of control | dose: 8.0 mg/kg/injection, schedule: Q04DX003 (ip), vehicle: suspension in saline 106 % of control | dose: 16.0 mg/kg/injection, schedule: Q04DX003 (ip), vehicle: saline 109 % of control | dose: 16.0 mg/kg/injection, schedule: Q04DX003 (ip), vehicle: suspension in saline 114 % of control | dose: 32.0 mg/kg/injection, schedule: Q04DX003 (ip), vehicle: saline 111 % of control | dose: 32.0 mg/kg/injection, schedule: Q04DX003 (ip), vehicle: suspension in saline 116 % of control | dose: 64.0 mg/kg/injection, schedule: Q04DX003 (ip), vehicle: saline 121 % of control | dose: 64.0 mg/kg/injection, schedule: Q04DX003 (ip), vehicle: suspension in saline 114 % of control

CC1OC(=O)C(C(C)C)NC(=O)C(C(C)C)OC(=O)C(C(C)C)NC(=O)C(C)OC(=O)C(C(C)C)NC(=O)C(C(C)C)OC(=O)C(C(C)C)NC(=O)C(C)OC(=O)C(C(C)C)NC(=O)C(C(C)C)OC(=O)C(C(C)C)NC1=O (centres undefined)
active: dose: 0.75 mg/kg/injection, schedule: Q04DX003 (ip), vehicle: Klucel (hydroxypropylcellulose) (HPC) 181 % of control | dose: 1.5 mg/kg/injection, schedule: Q04DX003 (ip), vehicle: Klucel (hydroxypropylcellulose) (HPC) 186 % of control | dose: 3.0 mg/kg/injection, schedule: Q04DX003 (ip), vehicle: Klucel (hydroxypropylcellulose) (HPC) 200 % of control | dose: 6.0 mg/kg/injection, schedule: Q04DX003 (ip), vehicle: Klucel (hydroxypropylcellulose) (HPC) 193 % of control | dose: 12.0 mg/kg/injection, schedule: Q04DX003 (ip), vehicle: Klucel (hydroxypropylcellulose) (HPC) 165 % of control

COc1cccc2c1C(=O)c1c(O)c3c(c(O)c1C2=O)C[C@@](O)(C(=O)COC(=O)c1cccnc1)C[C@@H]3OC1CC(N)C(O)C(C)O1 (some centres undefined)
inactive: dose: 5.5 mg/kg/injection, schedule: Q07DX003 (iv), vehicle: other 113 % of control | dose: 8.5 mg/kg/injection, schedule: Q07DX003 (iv), vehicle: other 108 % of control | dose: 13.1 mg/kg/injection, schedule: Q07DX003 (iv), vehicle: other 114 % of control | dose: 17.0 mg/kg/injection, schedule: Q07DX002 (iv), vehicle: alkali diluted with saline 99 % of control | dose: 20.3 mg/kg/injection, schedule: Q07DX003 (iv), vehicle: other 115 % of control | dose: 26.0 mg/kg/injection, schedule: Q07DX002 (iv), vehicle: alkali diluted with saline 94 % of control

CNc1nc(N(C)C)nc(N(C)C)n1
inactive: dose: 6.25 mg/kg/injection, schedule: Q04DX003 (ip), vehicle: water 105 % of control | dose: 12.5 mg/kg/injection, schedule: Q04DX003 (ip), vehicle: water 101 % of control | dose: 25.0 mg/kg/injection, schedule: Q04DX003 (ip), vehicle: water 98 % of control | dose: 50.0 mg/kg/injection, schedule: Q04DX003 (ip), vehicle: water 112 % of control | dose: 100.0 mg/kg/injection, schedule: Q04DX003 (ip), vehicle: water 121 % of control | dose: 200.0 mg/kg/injection, schedule: Q04DX003 (ip), vehicle: water 110 % of control

CCOC(=O)c1ccc(NC(=O)Nc2nccs2)cc1
inactive: dose: 12.5 mg/kg/injection, schedule: Q04DX002 (ip), vehicle: saline with Tween-80 97 % of control | dose: 25.0 mg/kg/injection, schedule: Q04DX002 (ip), vehicle: saline with Tween-80 105 % of control | dose: 50.0 mg/kg/injection, schedule: Q04DX002 (ip), vehicle: saline with Tween-80 95 % of control | dose: 100.0 mg/kg/injection, schedule: Q04DX002 (ip), vehicle: saline with Tween-80 106 % of control | dose: 200.0 mg/kg/injection, schedule: Q04DX002 (ip), vehicle: saline with Tween-80 102 % of control | dose: 400.0 mg/kg/injection, schedule: Q04DX002 (ip), vehicle: saline with Tween-80 110 % of control

ClC(Cl)=C(Cl)Cl
inactive: dose: 75.0 mg/kg/injection, schedule: Q04DX002 (ip), vehicle: other 101 % of control | dose: 150.0 mg/kg/injection, schedule: Q04DX002 (ip), vehicle: other 93 % of control | dose: 300.0 mg/kg/injection, schedule: Q04DX002 (ip), vehicle: other 89 % of control

CC(C)CCC[C@@H](C)[C@H]1CC[C@H]2[C@@H]3CC=C4C[C@@H](OC(=O)Cc5ccc(N(CCCl)CCCl)cc5)CC[C@]4(C)[C@H]3CC[C@]12C
inactive: dose: 50.0 mg/kg/injection, schedule: Q04DX002 (ip), vehicle: Klucel (hydroxypropylcellulose) (HPC) 91 % of control | dose: 100.0 mg/kg/injection, schedule: Q04DX002 (ip), vehicle: Klucel (hydroxypropylcellulose) (HPC) 101 % of control | dose: 200.0 mg/kg/injection, schedule: Q04DX002 (ip), vehicle: Klucel (hydroxypropylcellulose) (HPC) 101 % of control | dose: 400.0 mg/kg/injection, schedule: Q04DX002 (ip), vehicle: Klucel (hydroxypropylcellulose) (HPC) 101 % of control

Cc1c2oc3c(C)c(N)cc(C(=O)NC4C(=O)NC(C(C)C)C(=O)N5CCCC5C(=O)N(C)CC(=O)N(C)C(C(C)C)C(=O)OC4C)c3nc-2c(C(=O)NC2C(=O)NC(C(C)C)C(=O)N3CCCC3C(=O)N(C)CC(=O)N(C)C(C(C)C)C(=O)OC2C)c(N)c1=O (centres undefined)
inactive: dose: 500.0 micrograms/kg/injection, schedule: Q01DX001 (ip), vehicle: saline + alcohol 102 % of control | dose: 1000.0 micrograms/kg/injection, schedule: Q01DX001 (ip), vehicle: saline + alcohol 102 % of control
